The results in this text go back to patent publication US11858956B2, “6-aza-nucleoside prodrugs as antiviral agents for treating virus infections” (Southern Research Institute, priority 2020, dated 2024).

Common to all, as to assay type: cell-based
One data set has as its system WNV. In words: Antiviral activity against WNV in HEK293 cells. The conditions noted are these: West Nile virus; for EC90: HEK293, read-out: WNV (HEK293 cells) EC90; for log reduction at 10 µM: HEK293, read-out: WNV (HEK293 cells) VTR (virus titer reduction).
Another data set deals with ZIKA. The data set can be described thus: Antiviral activity against ZIKA in HEK 293 cells. The conditions noted are these: Zika virus; for EC90: HEK293, read-out: ZIKA (HEK 293 cells) EC90; for log reduction at 10 µM: HEK293, read-out: ZIKA (HEK 293 cells) VTR (virus titer reduction).
Another data set deals with H3N2 strain. The data set can be described thus: Antiviral activity against Influenza H3N2 strain in MDCK cells. The following applies: Influenza A virus; for log reduction at 20 µM: at 20 μM concentration, 4-6 hours pre-incubation, read-out: H3N2 strain (MDCK cells) VTR (virus titer reduction). On the procedure: (§1) The antiviral activity against Influenza viruses (H1N1 and H3N2 strains) evaluated in MDCK cells (4-6 hours pre-incubation with compound) shown in Table 5 below. VTR=Virus titer reduction in log at 20 μM concentration. NT: not tested, ND: not determined.

The nature of data set [1]: Cytotoxicity (CC50) in MDCK cells. The conditions noted are these: dog, H1N1. How it is done: (§2) As used herein, “CC50” is intended to refer to the concentration of a substance (e.g., a compound or a drug) that is required for 50% reduction of cell viability. In one aspect, an CC50 can refer to the concentration of a substance that is required for 50% reduction (i.e., cytotoxicity) in vivo, as further defined elsewhere herein.
as §1

The test system of the next data set is DENV. The data set can be described thus: Antiviral activity against DENV in HEK293 cells. The following applies: Dengue virus; for EC90: HEK293, read-out: DENV (HEK293 cells) EC90; for log reduction at 10 µM: HEK293, read-out: DENV (HEK293 cells) VTR (virus titer reduction).
Another data set concerns H1N1 strain. In words: Antiviral activity against Influenza H1N1 strain in MDCK cells. The conditions noted are these: Influenza A virus; for log reduction at 20 µM: at 20 μM concentration, 4-6 hours pre-incubation, read-out: H1N1 strain (MDCK cells) VTR (virus titer reduction). On the procedure:
as §1

Another data set concerns VEEV. In words: microbe, parasite or virus in culture. The conditions noted are these: Venezuelan equine encephalitis virus, NHDF; for EC90: read-out: VEEV (NHDF cells) EC90; for log reduction at 10 µM: read-out: VEEV (NHDF cells) VTR (virus titer reduction).
In a further data set the test system is CHIKV. The data set can be described thus: Antiviral activity against CHIKV in NHDF cells. The conditions noted are these: Chikungunya virus; for EC90: read-out: CHIKV (NHDF cells) EC90; for log reduction at 10 µM: read-out: CHIKV (NHDF cells) VTR (virus titer reduction).
The nature of data set [2]: Cytotoxicity (CC50) in NHDF cells. The conditions noted are these: human, CHIKV. How it is done: as §2
VTR=Virus titer reduction in log at 10 μM concentration. NT: not tested, ND: not determined.

Data set [3] in a line: Cytotoxicity (CC50) in HEK293 cells. The following applies: human, WNV. How it is done:
as §2
The antiviral activity against Alpharviruses evaluated in HEK293 cells (4 hours pre-incubation with compound before infected with virus) is shown in Table 2 below. VTR=Virus titer reduction in log at 10 μM concentration. NT: not tested, ND: not determined

Where [4] appears, read: 4-6 hours pre-incubation with compound.

Regarding `C[C@H](NP(=O)(OC[C@H]1O[C@@H](n2ncc(=O)[nH]c2=O)[C@H](O)[C@@H]1O)Oc1ccccc1)C(=O)OCc1ccc([N+](=O)[O-])o1` (mixture of isomers) [Compound 1, (5-nitrofuran-2-yl)methyl ((((2R,3S,4R,5R)-5-(3,5-dioxo-4,5-dihydro-1,2,4-triazin-2(3H)-yl)-3,4-dihydroxytetra-hydrofuran-2-yl)methoxy)(phenoxy)phosphoryl)-L-alaninate], the EC90 with WNV was 0.6 µM; in the data set on ZIKA it was 3.2 µM; in the data set with DENV, 1.9 µM; in the data set with VEEV, over 10 µM; in the data set with CHIKV, 0.95 µM. Also, the log reduction at 10 µM is 3.8 in the data set on WNV; 2.2 with ZIKA; 2.4 with DENV; 0.85 in the data set on VEEV; 4.3 in the data set on CHIKV. For the same molecule, the log reduction at 20 µM stood at 0.6 in the data set with H3N2 strain and 1.6 with H1N1 strain. Further, the CC50 in data set [1] was over 100 µM; in data set [2], over 40 µM; in data set [3], 40 µM.

As to `C[C@H](NP(=O)(OC[C@H]1O[C@@H](n2ncc(=O)[nH]c2=O)[C@H](O)[C@@H]1O)Oc1ccccc1)C(=O)OCc1ccccc1` (mixture of isomers) [Compound 2, Benzyl ((((2R,3S,4R,5R)-5-(3,5-dioxo-4,5-dihydro-1,2,4-triazin-2(3H)-yl)-3,4-dihydroxytetrahydrofuran-2-yl)methoxy)-(phenoxy)phosphoryl)-L-alaninate], the EC90 in the data set with WNV was 1.3 µM; in the data set on ZIKA it was 16 µM; with DENV, 6.9 µM; in the data set with VEEV, over 10 µM; in the data set with CHIKV, 0.4 µM. The log reduction at 10 µM in the data set on WNV came to 3; in the data set with DENV, 1.3; in the data set with VEEV it was 0; in the data set on CHIKV, 0. Further, the log reduction at 20 µM was determined as 0.9 with H3N2 strain and 2.3 in the data set on H1N1 strain. Moreover, the CC50 in data set [1] is over 100 µM; in data set [2] it was over 40 µM; in data set [3], over 40 µM.

For `CCC(CC)COC(=O)[C@H](C)NP(=O)(OC[C@H]1O[C@@H](n2ncc(=O)[nH]c2=O)[C@H](O)[C@@H]1O)Oc1ccccc1` (mixture of isomers) [Compound 3, 2-ethylbutyl ((((2R,3S,4R,5R)-5-(3,5-dioxo-4,5-dihydro-1,2,4-triazin-2(3H)-yl)-3,4-dihydroxytetrahydrofuran-2-yl)methoxy)(phenoxy)phosphoryl)-L-alaninate], the EC90 in the data set with WNV was 2.9 µM; in the data set on ZIKA, 3.3 µM; in the data set with DENV, 2.5 µM; with VEEV it was over 10 µM; with CHIKV it was over 10 µM. Moreover, the log reduction at 10 µM with WNV was 3.2; with ZIKA, 2.4; in the data set with DENV, 3.5; with VEEV it was 0; in the data set on CHIKV, 0. Also, the CC50 in data set [2] and in [3] was over 40 µM throughout.

As to `CC(C)OC(=O)[C@H](C)NP(=O)(OC[C@H]1O[C@@H](n2ncc(=O)[nH]c2=O)[C@H](O)[C@@H]1O)Oc1ccccc1` (mixture of isomers) [Compound 5, isopropyl ((((2R,3S,4R,5R)-5-(3,5-dioxo-4,5-dihydro-1,2,4-triazin-2(3H)-yl)-3,4-dihydroxytetrahydrofuran-2-yl)methoxy)(phenoxy)phosphoryl)-L-alaninate], the EC90 with WNV was over 30 µM; in the data set on ZIKA, over 30 µM; with DENV, over 30 µM; with VEEV it was over 10 µM; in the data set with CHIKV, over 10 µM. The figures for the log reduction at 20 µM in the data set with H3N2 strain and with H1N1 strain were -0.1 and 0.2, respectively. In addition, the CC50 in data set [1] was over 100 µM; in data set [2], over 40 µM. For the same molecule, the log reduction at 10 µM is 0 in the data set with VEEV and 0.15 with CHIKV.

In the case of `CCOC(=O)[C@H](C)NP(=O)(OC[C@H]1O[C@@H](n2ncc(=O)[nH]c2=O)[C@H](O)[C@@H]1O)Oc1ccccc1` (mixture of isomers) [Compound 6, ethyl ((((2R,3S,4R,5R)-5-(3,5-dioxo-4,5-dihydro-1,2,4-triazin-2(3H)-yl)-3,4-dihydroxytetrahydrofuran-2-yl)methoxy)-(phenoxy)phosphoryl)-L-alaninate], the EC90 in the data set with WNV was 10 µM; in the data set on ZIKA it was 12 µM; in the data set with DENV, over 15 µM; in the data set on VEEV, over 10 µM; in the data set on CHIKV, over 10 µM. Besides, the log reduction at 20 µM was 0.2 in the data set with H3N2 strain and 1.6 in the data set on H1N1 strain. The CC50 in data set [1] was over 100 µM; in [2], over 40 µM; in data set [3], over 40 µM. For the same molecule, the log reduction at 10 µM in the data set on VEEV and in the data set with CHIKV was 0 throughout.

For the molecule `COC(=O)[C@H](C)NP(=O)(OC[C@H]1O[C@@H](n2ncc(=O)[nH]c2=O)[C@H](O)[C@@H]1O)Oc1ccccc1` (mixture of isomers) [Compound 7, methyl ((((2R,3S,4R,5R)-5-(3,5-dioxo-4,5-dihydro-1,2,4-triazin-2(3H)-yl)-3,4-dihydroxytetrahydrofuran-2-yl)methoxy)-(phenoxy)phosphoryl)-L-alaninate], the 90% effect concentration (EC90) in the data set on WNV was 4.3 µM; in the data set with ZIKA it was 7.6 µM; in the data set on DENV it was 5 µM; with VEEV, over 10 µM; with CHIKV it was over 10 µM. Moreover, the log reduction at 10 µM is 2.6 in the data set on WNV; 1.3 in the data set on ZIKA; 3.2 with DENV; 0 in the data set on VEEV; 0 in the data set on CHIKV. Moreover, the results for the log reduction at 20 µM with H3N2 strain and with H1N1 strain were 1.6 and 3.4, respectively. The CC50 in [1] is over 100 µM; in data set [2], over 40 µM; in data set [3], 40 µM.

Take `CC(C)COC(=O)[C@H](C)NP(=O)(OC[C@H]1O[C@@H](n2ncc(=O)[nH]c2=O)C(O)[C@H]1O)Oc1ccccc1` (stereo in doubt) [Compound 4, 2-isobutyl ((((2R,3S,4R,5R)-5-(3,5-dioxo-4,5-dihydro-1,2,4-triazin-2(3H)-yl)-3,4-dihydroxytetrahydrofuran-2-yl)methoxy)(phenoxy)phosphoryl)-L-alaninate]: the EC90 in the data set with WNV is 1.2 µM; in the data set with ZIKA, 4.8 µM; in the data set on DENV, 2 µM; with VEEV, 8.9 µM; in the data set with CHIKV, over 10 µM. In addition, the log reduction at 10 µM with WNV turned out to be 3.1; in the data set on ZIKA, 2; in the data set with DENV it was 2.2; with VEEV, 1.18; in the data set with CHIKV, 0. For the same molecule, the log reduction at 20 µM in the data set on H3N2 strain was determined as 1.3; with H1N1 strain, 3.4. Also, the CC50 in [1] was over 100 µM; in data set [2], over 40 µM; in [3], 40 µM.

On to `N[C@@H](Cc1ccccc1)C(=O)OC[C@H]1O[C@@H](n2ncc(=O)[nH]c2=O)[C@H](O)[C@@H]1O` [Compound 11, ((2r,3s,4r,5r)-5-(3,5-dioxo-4,5-dihydro-1,2,4-triazin-2(3H)-yl)-3,4-dihydroxytetrahydrofuran-2-yl)methyl L-phenylalaninate], for which the EC90 was over 30 µM with WNV; over 30 µM in the data set with ZIKA; 0.78 µM with H3N2 strain (setting [4]); over 30 µM with DENV; 0.14 µM with H1N1 strain (setting [4]); over 10 µM in the data set with CHIKV. Further, the log reduction at 20 µM in the data set with H3N2 strain and in the data set with H1N1 strain was 3.4 throughout. Also, the values for the CC50 in [1] and in [2] were over 20 µM and over 40 µM, respectively. The log reduction at 10 µM with CHIKV was found to be 0.05.

What is called EC90 is the point of the concentration-response curve where the effect stands at 90%. The term CC50 denotes the concentration at which the toxic effect on the cells reaches its halfway point. A low value points to harm at low concentration.
